Reference: paper PMC4370687, “Functional Characterization of the 1,5-Benzodiazepine Clobazam and Its Major Active Metabolite N-Desmethylclobazam at Human GABAA Receptors Expressed in Xenopus laevis Oocytes” (PLoS ONE, 2015)

What was measured:
Assay in all cases: GABA concentration-response, TEVC electrophysiology in Xenopus oocytes
Type in all cases: cell-based
Conditions in all cases: GABA as agonist
human α3β2γ2S GABAAR = biological target: T1, human α3β2γ2S GABAAR (Homo sapiens, UniProt P18507+P34903+P47870)
T1 construct: expressed in transfected cells; host or cells: Xenopus laevis oocytes (cRNA injection, 1:1:1)
T1 sequence (P34903 29-492): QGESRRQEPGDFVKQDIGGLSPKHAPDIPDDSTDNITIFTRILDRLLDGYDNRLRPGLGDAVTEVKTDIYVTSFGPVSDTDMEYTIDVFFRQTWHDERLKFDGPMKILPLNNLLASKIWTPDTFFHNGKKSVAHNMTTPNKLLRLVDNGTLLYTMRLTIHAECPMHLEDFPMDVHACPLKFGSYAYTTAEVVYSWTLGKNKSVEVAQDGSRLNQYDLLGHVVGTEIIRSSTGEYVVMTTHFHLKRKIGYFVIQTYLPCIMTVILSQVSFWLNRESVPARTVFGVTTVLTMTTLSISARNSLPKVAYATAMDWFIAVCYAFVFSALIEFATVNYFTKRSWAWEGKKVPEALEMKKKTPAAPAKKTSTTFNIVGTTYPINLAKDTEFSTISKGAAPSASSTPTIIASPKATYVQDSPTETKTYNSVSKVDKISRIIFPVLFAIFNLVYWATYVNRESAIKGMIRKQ
T1 sequence (P47870 26-474 isoform P47870-1 limits assumed): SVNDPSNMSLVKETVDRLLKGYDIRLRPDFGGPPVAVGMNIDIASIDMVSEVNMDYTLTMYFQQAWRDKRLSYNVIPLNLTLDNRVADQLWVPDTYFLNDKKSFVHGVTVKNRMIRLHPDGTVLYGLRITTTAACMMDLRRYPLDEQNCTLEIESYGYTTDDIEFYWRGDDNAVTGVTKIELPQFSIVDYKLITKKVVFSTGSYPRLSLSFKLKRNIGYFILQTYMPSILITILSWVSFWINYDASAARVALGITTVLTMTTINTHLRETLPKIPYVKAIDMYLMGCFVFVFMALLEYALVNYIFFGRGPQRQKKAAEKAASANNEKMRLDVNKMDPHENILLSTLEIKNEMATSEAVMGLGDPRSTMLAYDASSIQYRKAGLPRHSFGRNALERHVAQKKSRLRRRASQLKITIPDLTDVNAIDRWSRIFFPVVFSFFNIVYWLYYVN
T1 sequence (P18507 40-467 isoform P18507-1 limits assumed): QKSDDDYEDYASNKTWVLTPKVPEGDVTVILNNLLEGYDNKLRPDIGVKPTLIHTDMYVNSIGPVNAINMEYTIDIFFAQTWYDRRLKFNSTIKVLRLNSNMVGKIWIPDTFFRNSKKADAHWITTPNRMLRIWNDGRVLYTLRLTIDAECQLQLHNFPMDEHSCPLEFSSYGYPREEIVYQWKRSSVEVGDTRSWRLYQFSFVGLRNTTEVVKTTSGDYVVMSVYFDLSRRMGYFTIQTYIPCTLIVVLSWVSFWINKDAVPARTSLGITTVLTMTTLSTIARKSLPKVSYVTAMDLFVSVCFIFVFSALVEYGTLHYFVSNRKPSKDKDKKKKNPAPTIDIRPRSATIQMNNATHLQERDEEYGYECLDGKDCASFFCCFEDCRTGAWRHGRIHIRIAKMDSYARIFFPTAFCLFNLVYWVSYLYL
Experimental: (§1) The cDNAs encoding the human GABAAR subunits were linearized with DraIII (α1, α2, α3, α5 and α6), SmaI (β2 and γ2S) or StuI (δ) and used as templates for in vitro cRNA synthesis using the T7 mMESSAGE mMACHINE High Yield Capped RNA Transcription Kit (Life Technologies Corporation, Carlsbad, CA, USA). Except where otherwise indicated, Xenopus oocytes were injected with 36.8 nL cRNA solution encoding for α1β2γ2S, α2β2γ2S, α3β2γ2S and α5β2γ2S GABAARs in a 1:1:1 α:β2:γ2S ratio (2.7 ng/μL of each subunit), with 46 nL cRNA solution encoding for the α6β2δ GABAAR in a 10:1:10 α6:β2:δ ratio (1:0.1:1 μg/μL), with 18 nL cRNA solution encoding for the α1β2 GABAAR in a 1:1 α1:β2 ratio (0.6:0.6 μg/μL), or with 46 nL cRNA encoding for α6β2 (α6:β2 ratio: 1:0.1 μg/μL). Following injection, the oocytes were incubated at 18°C in modified Barth’s solution [88 mM NaCl, 1 mM KCl, 15 mM HEPES (pH 7.5), 2.4 mM NaHCO3, 0.41 mM CaCl2, 0.82 mM MgSO4, 0.3 mM Ca(NO3)2, 100 U/mL penicillin and 100 μg/mL streptomycin]. Electrophysiological recordings were performed 3 to 6 days after injection.
(§2) Electrophysiological recordings were performed using the TEVC technique on Xenopus oocytes expressing various GABAAR combinations using a protocol adapted from previous studies. […] Cells were impaled with agar-plugged 0.5–1 MΩ electrodes containing 3 M KCl and voltage clamped at −70 mV by a Gene Clamp 500B amplifier (Axon Instruments, Union City, CA, USA) and recorded with pClamp 10 (Windows version, Molecular Devices, LLC, Sunnyvale, CA, USA). The oocytes were continuously perfused with Ringer buffer, and the test compounds were applied in the perfusate. Experiments were performed at room temperature and each data point represents the mean ± S.E.M. value of recordings performed on at least two oocytes from at least two different batches of oocytes. The recorded baseline-to-peak current amplitudes were analyzed using Clampfit 10.1 (Axon Instruments, Union City, CA, USA). […]

human α5β2γ2S GABAAR = biological target: T2, human α5β2γ2S GABAAR (Homo sapiens, UniProt P18507+P31644+P47870)
T2 construct: expressed in transfected cells; host or cells: Xenopus laevis oocytes (cRNA injection, 1:1:1)
T2 sequence (P31644 32-462): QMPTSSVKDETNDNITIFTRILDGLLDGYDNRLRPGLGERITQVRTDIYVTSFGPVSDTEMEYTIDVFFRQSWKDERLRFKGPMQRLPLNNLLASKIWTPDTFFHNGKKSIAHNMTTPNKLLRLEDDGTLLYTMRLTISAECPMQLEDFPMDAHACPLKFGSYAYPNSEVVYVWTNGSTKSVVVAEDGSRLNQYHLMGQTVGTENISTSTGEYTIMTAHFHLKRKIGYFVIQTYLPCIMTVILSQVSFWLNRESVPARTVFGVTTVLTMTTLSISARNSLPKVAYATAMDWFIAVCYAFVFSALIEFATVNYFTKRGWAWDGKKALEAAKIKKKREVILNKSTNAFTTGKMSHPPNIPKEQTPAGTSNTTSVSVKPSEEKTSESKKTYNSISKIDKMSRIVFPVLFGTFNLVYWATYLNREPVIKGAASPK
T2 sequence (P47870 26-474 isoform P47870-1 limits assumed): as the sequence (P47870 26-474 isoform P47870-1 limits assumed) above
T2 sequence (P18507 40-467 isoform P18507-1 limits assumed): as the sequence (P18507 40-467 isoform P18507-1 limits assumed) above
Experimental: as §1, §2

human α2β2γ2S GABAAR = biological target: T3, human α2β2γ2S GABAAR (Homo sapiens, UniProt P18507+P47869+P47870)
T3 construct: expressed in transfected cells; host or cells: Xenopus laevis oocytes (cRNA injection, α:β2:γ2S 1:1:1; 1:1:5 in the zolpidem comparison)
T3 sequence (P47869 29-451): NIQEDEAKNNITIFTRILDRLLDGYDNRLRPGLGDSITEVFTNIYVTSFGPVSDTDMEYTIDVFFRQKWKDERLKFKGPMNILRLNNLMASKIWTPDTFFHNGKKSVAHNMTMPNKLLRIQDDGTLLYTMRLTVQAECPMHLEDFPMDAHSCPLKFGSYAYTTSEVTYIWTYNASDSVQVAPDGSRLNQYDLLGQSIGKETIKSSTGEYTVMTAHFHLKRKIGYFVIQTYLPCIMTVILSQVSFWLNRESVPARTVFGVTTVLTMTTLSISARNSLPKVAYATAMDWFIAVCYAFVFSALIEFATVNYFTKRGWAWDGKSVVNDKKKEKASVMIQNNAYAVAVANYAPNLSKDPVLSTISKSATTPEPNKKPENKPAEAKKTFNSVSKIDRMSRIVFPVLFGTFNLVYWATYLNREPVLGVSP
T3 sequence (P47870 26-474 isoform P47870-1 limits assumed): as the sequence (P47870 26-474 isoform P47870-1 limits assumed) above
T3 sequence (P18507 40-467 isoform P18507-1 limits assumed): as the sequence (P18507 40-467 isoform P18507-1 limits assumed) above
Experimental: as §1, §2

human α6β2 GABAAR = biological target: T4, human α6β2 GABAAR (Homo sapiens, UniProt P47870+Q16445)
T4 construct: expressed in transfected cells; host or cells: Xenopus laevis oocytes (cRNA injection)
T4 sequence (Q16445 20-453): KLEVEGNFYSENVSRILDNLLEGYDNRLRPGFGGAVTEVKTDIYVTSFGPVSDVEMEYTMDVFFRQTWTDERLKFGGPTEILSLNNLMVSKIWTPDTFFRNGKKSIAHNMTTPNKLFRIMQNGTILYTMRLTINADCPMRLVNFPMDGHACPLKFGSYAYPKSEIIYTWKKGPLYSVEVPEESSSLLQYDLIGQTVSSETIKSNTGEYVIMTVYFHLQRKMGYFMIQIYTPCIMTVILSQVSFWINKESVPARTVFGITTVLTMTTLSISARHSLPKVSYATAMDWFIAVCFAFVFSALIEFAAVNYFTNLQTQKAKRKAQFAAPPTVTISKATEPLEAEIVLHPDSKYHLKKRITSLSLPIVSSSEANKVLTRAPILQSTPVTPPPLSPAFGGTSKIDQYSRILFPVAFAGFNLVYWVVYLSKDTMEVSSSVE
T4 sequence (P47870 26-474 isoform P47870-1 limits assumed): as the sequence (P47870 26-474 isoform P47870-1 limits assumed) above
Experimental: as §1, with “Following injection, the oocytes were incubated at 18°C in modified Barth’s solution [88 mM NaCl, 1 mM KCl, 15 mM HEPES (pH 7.5), 2.4 mM NaHCO3, 0.41 mM CaCl2, 0.82 mM MgSO4, 0.3 mM Ca(NO3)2, 100 U/mL penicillin and 100 μg/mL streptomycin]. Electrophysiological recordings were performed 3 to 6 days after injection.” left out
as §2, with “The oocytes were continuously perfused with Ringer buffer, and the test compounds were applied in the perfusate. Experiments were performed at room temperature and each data point represents the mean ± S.E.M. value of recordings performed on at least two oocytes from at least two different batches of oocytes.” left out

human α1β2γ2S GABAAR = human α1β2γ2S GABAAR (Homo sapiens, UniProt P14867+P18507+P47870); parameters: expressed in transfected cells; host or cells: Xenopus laevis oocytes (cRNA injection, α:β2:γ2S 1:1:1)
Sequence of human α1β2γ2S GABAAR (P14867 28-456): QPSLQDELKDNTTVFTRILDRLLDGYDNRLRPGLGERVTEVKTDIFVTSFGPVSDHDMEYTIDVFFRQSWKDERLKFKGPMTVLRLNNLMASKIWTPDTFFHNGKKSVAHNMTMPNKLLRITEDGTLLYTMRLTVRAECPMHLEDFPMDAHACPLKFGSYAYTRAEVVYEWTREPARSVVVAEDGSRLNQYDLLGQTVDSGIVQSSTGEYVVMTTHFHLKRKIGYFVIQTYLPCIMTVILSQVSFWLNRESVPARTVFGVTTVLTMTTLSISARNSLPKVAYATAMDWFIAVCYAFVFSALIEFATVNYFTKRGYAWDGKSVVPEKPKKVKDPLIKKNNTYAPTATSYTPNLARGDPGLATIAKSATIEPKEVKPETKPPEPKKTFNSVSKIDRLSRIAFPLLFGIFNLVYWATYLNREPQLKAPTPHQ
Sequence of human α1β2γ2S GABAAR (P47870 26-474 isoform P47870-1 limits assumed): as the sequence (P47870 26-474 isoform P47870-1 limits assumed) above
Sequence of human α1β2γ2S GABAAR (P18507 40-467 isoform P18507-1 limits assumed): as the sequence (P18507 40-467 isoform P18507-1 limits assumed) above
Experimental: as §1, with “Following injection, the oocytes were incubated at 18°C in modified Barth’s solution [88 mM NaCl, 1 mM KCl, 15 mM HEPES (pH 7.5), 2.4 mM NaHCO3, 0.41 mM CaCl2, 0.82 mM MgSO4, 0.3 mM Ca(NO3)2, 100 U/mL penicillin and 100 μg/mL streptomycin]. Electrophysiological recordings were performed 3 to 6 days after injection.” left out
as §2, with “The oocytes were continuously perfused with Ringer buffer, and the test compounds were applied in the perfusate. Experiments were performed at room temperature and each data point represents the mean ± S.E.M. value of recordings performed on at least two oocytes from at least two different batches of oocytes.” left out

## NCCCC(=O)O [GABA, γ-aminobutyric acid]
Human α3β2γ2S GABAAR
  Hill slope nH ± S.E.M.: 1.22 ± 0.05
Human α5β2γ2S GABAAR
  Hill slope nH ± S.E.M.: 1.19 ± 0.08
Human α2β2γ2S GABAAR
  Hill slope nH ± S.E.M.: 1.44 ± 0.07
Human α6β2 GABAAR
  Hill slope nH ± S.E.M.: 0.89 ± 0.09
Human α1β2γ2S GABAAR
  Hill slope nH ± S.E.M.: 1.19 ± 0.05
